Measurements published in US6444681B1, “Methods and compositions for treating Raynaud's Phenomenon and scleroderma” (The Ohio State University Research Foundation, priority 2000, dated 2002).
Read-outs that look alike come from different tables or passages of the source.

Tests used:
[1] = system: small dermal arteries/arterioles from healthy controls and SSc subjects; assay: α2C-AR blockade of UK 14,304 vasoconstriction in human dermal arteries from control and SSc subjects; assay type: cell-based; conditions: for Kb: Homo sapiens, topical, versus UK 14,304, read-out: calculated dissociation constant, −log Kb (converted)
Procedure: Arterioles were dissected from the deep dermal plexus of the biopsies and any side branches tied. […] The arterioles were cannulated with glass micropipettes and placed in a microvessel chamber as previously describe. The arterioles were maintained in no-flow state at a constant transmural pressure (PTM)of 40 mmHg. The chamber was superfused with buffer solution (37° C., pH 7.4, gassed with 16% O2-5% CO2-balance N2) and placed on stage of an inverted microscope for continuous monitoring of internal diameter using a video camera and video dimension analyzer.
In order to determine the influence of α2C-AR blockade, paired arteries from each subject were used. […] In the other artery of each pair, increasing concentrations of the α2C-AR antagonist (MK 912) was administered before the response to UK 14,304 was determined.

α-2B = molecular target: T1, α-2B (Homo sapiens, UniProt P18089); conditions: cited from earlier work
T1 sequence (P18089 1-450): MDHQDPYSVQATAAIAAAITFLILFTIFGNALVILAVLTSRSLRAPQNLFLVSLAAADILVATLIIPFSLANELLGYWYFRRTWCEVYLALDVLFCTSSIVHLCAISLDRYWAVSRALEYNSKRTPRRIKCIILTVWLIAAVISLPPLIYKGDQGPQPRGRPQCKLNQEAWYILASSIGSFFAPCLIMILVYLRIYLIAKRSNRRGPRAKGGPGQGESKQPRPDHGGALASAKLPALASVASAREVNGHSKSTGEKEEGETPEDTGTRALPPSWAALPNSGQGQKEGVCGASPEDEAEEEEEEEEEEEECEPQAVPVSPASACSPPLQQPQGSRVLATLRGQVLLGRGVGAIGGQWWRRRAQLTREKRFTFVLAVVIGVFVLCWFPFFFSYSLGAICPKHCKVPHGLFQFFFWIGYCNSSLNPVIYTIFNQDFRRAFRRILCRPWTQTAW

Mouse Tail Artery = assay: Antagonism of UK 14,304-induced vasoconstriction in isolated pressurised distal mouse tail artery; assay type: cell-based
Source text: Male mice (C57BL6) were euthanized by CO2 asphyxiation. Proximal and/or distal segments of tail artery were then rapidly removed and placed in cold Krebs-Ringer bicarbonate solution (in mM): 118.3 NaCl, 4.7 KCl, 1.2 MgSO4, 1.2 KH2PO4, 2.5 CaCl2, 25.0 NaHCO3, 11. glucose (control solution). The small arteries were cannulated at both ends with glass micropipettes, secured using 12-0 nylon monofilament suture and placed in a microvascuiar chamber (Living Systems, Burlington, Vt.). The arteries were maintained at a constant transmural pressure of 60 mmHg in the absence of flow. The chamber was superfused with control solution and maintained at 37° C., pH 7.4, and gassed with 16% O2-5% CO2-balance N2. The chamber was placed on the stage of an inverted microscope (X20, Nikon TMS-F, Japan) connected to a video camera (Panasonic, CCTV camera, Japan). The vessel image was projected onto a video monitor and the internal diameter continuously determined by a video dimension analyzer (Living Systems Instrumentation, Burlington Vt.) and monitored using a BIOPAC (Santa Barbara, Calif.) data acquisition system (Gateway Dimensions Pentium Computer).
Small arteries were allowed to equilibrate for 30-40 min at a transmural pressure (PTM) of 60 mmHg before addition of α1 and α2-AR agonists and antagonists. Concentration-effect curves to the selective α1-AR agonist, phenylephrine, or the selective α2-AR agonist, UK 14,304 (brimonidine, 5-bromo-N-(4,5-dihydro-1H-imidazol-2-yl)-6-quinoxalinamine) were generated by increasing the concentration of the agonists in half-log increments, once the constriction to the previous concentration had stabilized. Following completion of the concentration-effect curve, the influence of the agonists was terminated by repeatedly exchanging the buffer solution and allowing the artery to return to its stable baseline level.
To evaluate the effect of selective α2-AR antagonists on vasoconstriction, concentration-effect curves to UK 14,304 were determined under control conditions and in the presence of the selective α2A-AR antagonist, BRL 44408 (100 and 1000 nM), the selective α2B-AR antagonist ARC 0239 (50 nM) or the selective α2C-AR antagonist MK 912 (0.3 nM) (Table 1). When these receptor antagonists were used, the preparations were incubated for 30 min with the drugs prior to, and also during, exposure of the arteries to the agonists. When analyzing the influence of cold on α-AR responsiveness, the temperature of the superfusate was decreased to 28° C. for 30 min prior to commencing a concentration effect curve to the constrictor agonists. This provides sufficient time for the effect of cold on adrenergic reactivity to stabilize.
Vasomotor responses were expressed as a percentage change in internal diameter (ID) prior to administrating the agent. Because of the phasic behavior of the vasomotion in distal. tail arteries, the signal was electronically averaged (BIOPAC software, smoothing factor of 2000) in order to obtain diameter measurements. Functional data is expressed as means±SEM for n number of experiments, where n equals the number of animals from which blood vessels were studied. Antagonist dissociation constants (KD) were determined either from Arunlakshana and Schild plots or according to the formula: KD=[Ant]/(CR-1), where [Ant] is the concentration of antagonist, and CR the ratio of agonist-concentrations producing equal responses in the presence and absence of the antagonist. […] Statistical evaluation of the data was performed by Student's t-test for either paired or unpaired observations. When more than two means were compared, analysis of variance was used. If a significant F value was found, Scheffe's test for multiple comparisons was employed to identify differences among groups. Values were considered to be statistically different when P was less than 0.05.

α-2C = molecular target: T2, α-2C (Homo sapiens, UniProt P18825); conditions: cited from earlier work
T2 sequence (P18825 1-462): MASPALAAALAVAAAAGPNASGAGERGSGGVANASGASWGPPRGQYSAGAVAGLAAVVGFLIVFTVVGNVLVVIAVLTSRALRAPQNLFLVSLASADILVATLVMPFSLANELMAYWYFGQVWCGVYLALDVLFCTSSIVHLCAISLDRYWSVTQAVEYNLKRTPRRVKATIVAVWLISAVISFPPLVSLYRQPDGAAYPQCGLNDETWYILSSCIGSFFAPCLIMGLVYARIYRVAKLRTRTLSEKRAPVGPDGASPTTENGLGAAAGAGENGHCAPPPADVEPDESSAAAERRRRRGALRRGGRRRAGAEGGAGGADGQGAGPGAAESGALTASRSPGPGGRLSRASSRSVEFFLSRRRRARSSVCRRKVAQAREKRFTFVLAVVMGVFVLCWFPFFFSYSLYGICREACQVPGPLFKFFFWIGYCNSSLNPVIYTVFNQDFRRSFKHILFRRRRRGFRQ

## CN1CCC2(CCN3CCc4c(oc5ccccc45)C3C2)N(C)C1=O (stereo not drawn) [MK 912]
[1]; SSc arteries
  Kb: 0.00123 nM
[1]; control arteries
  Kb: 0.468 nM
  concentration needed to inhibit responses to UK 14,304: 10^−9 M
[1]; SSc arteries, extremely low concentrations (e.g. 10^−11M)
  effect on vasoconstrictor response to α2-AR stimulation: reduced the vasoconstrictor response
[1]; control versus SSc arteries
  concentration needed in control arteries relative to SSc arteries: 100 fold
α-2B
  Kd: 0.33 nM
Mouse Tail Artery; 28° C. (cold), n=4
  −log KD: 10.9±0.17
Mouse Tail Artery; 28° C. (cold), n=4, read-out: KD
  Kd: 0.014 nM
Mouse Tail Artery; 28° C. (cold), versus UK 14,304, distal tail artery, read-out: KD Mouse Tail Artery 28° C.
  Kd: > 0.014 nM
Mouse Tail Artery; 28° C. versus 37° C., UK 14,304
  effect on cold-induced amplification of the α2-AR response: selectively abolished
Mouse Tail Artery; 37° C. (warm), versus UK 14,304, distal tail artery, read-out: KD Mouse Tail Artery 37° C.
  Kd: > 0.3 nM
Mouse Tail Artery; based on the Table 1 KD, antagonist at 0.3 nM
  expected shift in concentration-effect curves generated by α2C-AR stimulation: ~6 fold
Mouse Tail Artery; cold (28° C.), BRL 44408 100 and 1000 nM, ARC 0239 50 nM, MK912 3×10^−10M
  effect on vasoconstrictor response to UK 14,304: dramatically inhibited
Mouse Tail Artery; warm temperatures (37° C.), BRL 44408 100 and 1000 nM, ARC 239 50 nM, MK 912 0.3 nM
  effect on vasoconstriction to the α2-AR agonist UK 14,304: not inhibited
α-2C
  Kd: 0.045 nM
